Measured values published in patent US20110217715A1, “GENE EXPRESSION IN DUCHENNE MUSCULAR DYSTROPHY” (CHILDREN'S HOSPITAL MEDICAL CENTER, priority 2008, published 2011).

Legend:
individuals with DMD = conditions: individuals with DMD; cited from earlier work
[1] = tested on: mRNA expression in peripheral blood of individuals with DMD; experiment: Whole-blood gene expression microarray: DMD administered prednisone or deflazacort vs DMD not administered steroid; type: in vivo, human
Experimental: Fifteen ml of blood was collected from each individual into 6 PAXgene® Vacutainer® tubes (PreAnalytiX, Germany) by antecubital fossa venipuncture. PAXgene® tubes contain a proprietary reagent that immediately stabilizes RNA, thus reducing RNA degradation and minimizing gene expression changes following phlebotomy. The tubes were then inverted 20 times, then remained undisturbed for 2 h at room temperature (about 19° C. to about 22° C.), and then stored at -70° C. until processed. Total RNA was isolated using the Paxgene® blood RNA kit (PreAnalytiX, Germany) according to the manufacturers instructions. The RNA isolated is from all cells in whole blood. […] Sample labeling, hybridization to chips, and image scanning were performed using standard Affymetrix protocols. For each whole blood sample from control individuals and individuals with DMD, total RNA was labeled using the One-Cycle Target Labeling protocol and hybridized to the arrays. […] Double-stranded cDNA synthesis, biotin-labeled cRNA synthesis, and cRNA fragmentation were performed according to the Affymetrix GeneChip Eukaryotic Expression Analysis protocol. […] After hybridization, the array was washed and stained. […] After scanning the array, the raw probe level values for each probe were saved in Affymetrix.cel files. […] Statistical analyses, including t-test analyses, unsupervised hierarchical clustering, and principal component analyses were conducted using Genespring 7.2 software ([…]® 7, Silicon Genetics, Redwood City Calif.). […] Corrections for multiple comparisons used a Benjamini-Hochberg False Discovery Rate (FDR) of 0.05, disclosed in Tang et al., J Cereb Blood Flow Metab 26 (2006) 1089, which is expressly incorporated by reference herein in its entirety. […] Individuals with DMD were evaluated and had been diagnosed by a single board-certified pediatric neurologist. The diagnosis of DMD was based in part upon clinical history, examination findings, and selected muscle biopsies and was confirmed by molecular diagnostic testing. […] Sample processing and array hybridization, probe-level data analysis, and statistical analysis were identical to Example 1.

[2] = tested on: mRNA expression in peripheral blood of individuals with DMD; experiment: Whole-blood gene expression microarray: DMD administered deflazacort vs DMD administered prednisone; type: in vivo, human; conditions: blood
Experimental: Fifteen ml of blood was collected from each individual into 6 PAXgene® Vacutainer® tubes (PreAnalytiX, Germany) by antecubital fossa venipuncture. PAXgene® tubes contain a proprietary reagent that immediately stabilizes RNA, thus reducing RNA degradation and minimizing gene expression changes following phlebotomy. The tubes were then inverted 20 times, then remained undisturbed for 2 h at room temperature (about 19° C. to about 22° C.), and then stored at -70° C. until processed. Total RNA was isolated using the Paxgene® blood RNA kit (PreAnalytiX, Germany) according to the manufacturers instructions. The RNA isolated is from all cells in whole blood. Typical yields of total RNA isolated from about 7.5 ml of human whole blood were between 10 μg RNA and 40 μg RNA. RNA quality and purity was analyzed by spectrophotometry using the Nanodrop ND-1000, and RNA integrity was analyzed using the Agilent 2100 Bioanalyzer. […] Sample labeling, hybridization to chips, and image scanning were performed using standard Affymetrix protocols. For each whole blood sample from control individuals and individuals with DMD, total RNA was labeled using the One-Cycle Target Labeling protocol and hybridized to the arrays. […] Double-stranded cDNA synthesis, biotin-labeled cRNA synthesis, and cRNA fragmentation were performed according to the Affymetrix GeneChip Eukaryotic Expression Analysis protocol. The labeled, fragmented cRNA (15 μg) was hybridized at 45° C. overnight. After hybridization, the array was washed and stained. The arrays were scanned with an argon-ion laser at λ=570 nm, with a resolution of 3 μm/pixel (Affymetrix, Inc.). After scanning the array, the raw probe level values for each probe were saved in Affymetrix.cel files. […] Statistical analyses, including t-test analyses, unsupervised hierarchical clustering, and principal component analyses were conducted using Genespring 7.2 software ([…]® 7, Silicon Genetics, Redwood City Calif.). […] Corrections for multiple comparisons used a Benjamini-Hochberg False Discovery Rate (FDR) of 0.05, disclosed in Tang et al., J Cereb Blood Flow Metab 26 (2006) 1089, which is expressly incorporated by reference herein in its entirety. […] Sample processing and array hybridization, probe-level data analysis, and statistical analysis were identical to Example 1.

mdx mouse = conditions: cited from earlier work
[3] = DMD administered deflazacort or prednisone vs not administered

Row | Compound | muscle function and strength (individuals with DMD) | expression levels of FKBP5 [1, 3] | expression levels of genes in the chondroitin sulfate biosynthesis pathway [1, 3] | expression levels of haptoglobin and CD163 nucleic acids [1, 3] | expression levels of lactotransferrin and lipocalin [1, 3] | expression of KFL10 ([1]; individuals administered prednisone, deflazacort, or both vs DMD not administered any agent) | expression of interleukin 1 beta, interleukin 1 receptor antagonist, and interleukin 6 receptor ([2]; individuals with DMD administered prednisone) | expression of genes related to lipid metabolism ([2]; prednisone compared to deflazacort) | expression of KFL10 (mdx mouse; six weeks of prednisone administration in the mdx mouse) | function and histology (mdx mouse; mdx mouse)
1 | Cn1cnc([N+](=O)[O-])c1Sc1ncnc2nc[nH]c12 [azathioprine] | no improvement |  |  |  |  |  |  |  |  | 
2 | C[C@]12C=CC(=O)C=C1CC[C@@H]1[C@@H]2C(=O)C[C@@]2(C)[C@H]1CC[C@]2(O)C(=O)CO [prednisone] | improved muscle function and strength | up-regulated | up-regulated | up-regulated | increased expression levels | up-regulated | up-regulated | up-regulated | up-regulated | 
3 | cyclosporin A |  |  |  |  |  |  |  |  |  | improves function and histology
